Measured values published in EPA's ToxRefDB 2.

What was measured:
dog [1] = details: Sub-acute repeat dose toxicity; beagle; Oral; Gavage/Intubation; dose end: 14 day; group: systemic; systemic / in life observation / clinical signs / abnormal feces
rat [2] = details: Sub-acute repeat dose toxicity, sprague dawley, Oral, Gavage/Intubation, dose end: 14 day, group: systemic
rat [3] = details: Sub-acute repeat dose toxicity, Oral, Gavage/Intubation, dose end: 14 day, group: systemic
mouse [4] = details: Subchronic oral toxicity in rodents, b6c3f1, Dermal, Topical, dose end: 14 week, group: systemic
rat [5] = details: Prenatal developmental toxicity study, sprague dawley, Oral, Gavage/Intubation, dose end: 15 GD
rat [6] = details: Other (NonGuideline or Guideline Not Listed), Oral, Feed, dose end: 111 PND, group: cannot be grouped
mouse [7] = details: Sub-acute dermal toxicity, b6c3f1, Topical, dose end: 2 week, group: systemic, systemic / pathology gross / skin / [other] + systemic / pathology gross / skin / thickened + systemic / pathology gross / skin / ulcer + …
rat [8] = details: Subchronic dermal toxicity, fischer, Topical, dose end: 14 week, group: systemic
rat [9] = details: Carcinogenicity, fischer, Dermal, Topical, dose end: 105 week, group: systemic
dog [10] = details: Subchronic oral toxicity in nonrodent, beagle, Feed, dose end: 90 day, group: systemic
dog [11] = details: Other (NonGuideline or Guideline Not Listed); beagle; Oral; Feed; dose end: 13 week; group: cannot be grouped; systemic / clinical chemistry / thyroxine (t4) / thyroxine (t4), total + systemic / clinical chemistry / triiodothyronine (t3) / …
rat [12] = details: Sub-acute dermal toxicity, fischer, Topical, dose end: 2 week, group: systemic, systemic / pathology microscopic / skin / hyperkeratosis + systemic / pathology microscopic / skin / hyperplasia + systemic / pathology …
rat [13] = details: Sub-acute dermal toxicity, wistar, Topical, dose end: 21 day, group: systemic, systemic / in life observation / clinical signs / erythema + systemic / in life observation / clinical signs / skin ulceration + systemic / …
mouse [14] = details: Carcinogenicity; b6c3f1; Dermal; Topical; dose end: 105 week; group: systemic; systemic / pathology microscopic / skin / hyperplasia + systemic / pathology microscopic / skin / inflammation
dog [15] = details: Subchronic oral toxicity in nonrodent, beagle, Feed, dose end: 90 day, group: systemic, systemic / organ weight / ovary / relative to body weight + systemic / organ weight / thyroid gland / relative to body weight
[16] = systemic / clinical chemistry / glucose / glucose + systemic / clinical chemistry / urea nitrogen / urea nitrogen + systemic / clinical …
[17] = systemic / in life observation / clinical signs / salivation
[18] = systemic / in life observation / clinical signs / urine staining - perineum + systemic / in life observation / clinical signs / salivation
[19] = systemic / organ weight / lung / absolute + systemic / organ weight / lung / relative to body weight
[20] = systemic / organ weight / lung / absolute + systemic / organ weight / lung / relative to body weight + systemic / organ weight / liver / …
[21] = group: developmental, developmental / developmental malformation / [other] / [other]
[22] = group: maternal, systemic / in life observation / body weight / body weight gain + reproductive / reproductive performance / resorptions / resorptions
[23] = systemic / in life observation / body weight / body weight gain + systemic / in life observation / food consumption / food consumption
[24] = systemic / in life observation / body weight / body weight gain + systemic / in life observation / food consumption / food consumption + …
[25] = systemic / pathology microscopic / skin / hyperkeratosis
[26] = systemic / pathology microscopic / skin / hyperkeratosis + systemic / pathology microscopic / skin / hyperplasia + systemic / pathology …
[27] = systemic / pathology gross / skin / [other] + systemic / pathology microscopic / skin / hyperkeratosis + systemic / pathology microscopic / …
[28] = systemic / pathology microscopic / skin / hyperkeratosis + systemic / pathology microscopic / skin / inflammation + systemic / pathology …
[29] = systemic / pathology microscopic / kidney / pigmentation + systemic / pathology microscopic / spleen / hematopoietic cell proliferation

O=C(O)CCN(C1(C(=O)NO)CCCC1)S(=O)(=O)c1ccc(Oc2ccc(F)cc2)cc1
LEL (dog [1]): 250 mg/kg/day | LOAEL (dog [1]): > 250 mg/kg/day | NEL (dog [1]): 50 mg/kg/day | NOAEL (dog [1]): ≥ 250 mg/kg/day | LEL (rat [2]; systemic / clinical chemistry / glucose / glucose + systemic / clinical chemistry / urea nitrogen / urea nitrogen): 150 mg/kg/day | LOAEL (rat [2]; [16]): > 500 mg/kg/day | NOAEL (rat [2]; [16]): ≥ 500 mg/kg/day | LEL (rat [3]; [17]): 300 mg/kg/day | NEL (rat [3]; [17]): < 300 mg/kg/day | LOAEL (rat [3]; [18]): > 500 mg/kg/day | NOAEL (rat [3]; [18]): ≥ 500 mg/kg/day

N#CCCC(Br)(C#N)CBr (stereo not drawn) [1,2-Dibromo-2,4-dicyanobutane]
LEL (mouse [4]; [19]): 0.2 mg/kg/day | NEL (mouse [4]; [19]): < 0.2 mg/kg/day | LOAEL (mouse [4]; [20]): > 18 mg/kg/day | NOAEL (mouse [4]; [20]): ≥ 18 mg/kg/day | LEL (rat [5]; [21]): 100 mg/kg/day | LOAEL (rat [5]; [21]): 100 mg/kg/day | NEL (rat [5]; [21]): 25 mg/kg/day | NOAEL (rat [5]; [21]): 25 mg/kg/day | LEL (rat [5]; [22]): 100 mg/kg/day | LOAEL (rat [5]; [22]): 100 mg/kg/day | NEL (rat [5]; [22]): 25 mg/kg/day | NOAEL (rat [5]; [22]): 25 mg/kg/day | NEL (rat [6]; [23]): 4.17 mg/kg/day | NOAEL (rat [6]; [23]): 4.17 mg/kg/day | LEL (rat [6]; [24]): 25 mg/kg/day | LOAEL (rat [6]; [24]): 25 mg/kg/day | LEL (mouse [7]): 75 mg/kg/day | LOAEL (mouse [7]): 75 mg/kg/day | NEL (mouse [7]): < 75 mg/kg/day | NOAEL (mouse [7]): < 75 mg/kg/day | LEL (rat [8]; [25]): 0.2 mg/kg/day | NEL (rat [8]; [25]): < 0.2 mg/kg/day | LOAEL (rat [8]; [26]): 2 mg/kg/day | NOAEL (rat [8]; [26]): 0.6 mg/kg/day | LOAEL (rat [9]; [27]): 6 mg/kg/day | NOAEL (rat [9]; [27]): 2 mg/kg/day | LEL (rat [9]; [28]): 2 mg/kg/day | NEL (rat [9]; [28]): < 2 mg/kg/day | LOAEL (dog [10]; systemic / in life observation / clinical signs / defecation (diarrhea) + systemic / in life observation / clinical signs / emesis): 3.11 mg/kg/day | NOAEL (dog [10]; systemic / in life observation / clinical signs / defecation (diarrhea) + systemic / in life observation / clinical signs / emesis + …): 0.331 mg/kg/day | LEL (dog [10]; [29]): 0.288 mg/kg/day | NEL (dog [10]; [29]): < 0.288 mg/kg/day | LEL (dog [11]): 4.17 mg/kg/day | LOAEL (dog [11]): 4.17 mg/kg/day | NEL (dog [11]): < 4.17 mg/kg/day | NOAEL (dog [11]): < 4.17 mg/kg/day | LEL (rat [12]): 37.5 mg/kg/day | LOAEL (rat [12]): 37.5 mg/kg/day | NEL (rat [12]): < 37.5 mg/kg/day | NOAEL (rat [12]): < 37.5 mg/kg/day | LEL (rat [13]): 1000 mg/kg/day | LOAEL (rat [13]): 1000 mg/kg/day | NEL (rat [13]): < 1000 mg/kg/day | NOAEL (rat [13]): < 1000 mg/kg/day | LEL (mouse [14]): 0.6 mg/kg/day | LOAEL (mouse [14]): 0.6 mg/kg/day | NEL (mouse [14]): < 0.6 mg/kg/day | NOAEL (mouse [14]): < 0.6 mg/kg/day | LEL (dog [15]): 4.17 mg/kg/day | LOAEL (dog [15]): 4.17 mg/kg/day | NEL (dog [15]): < 4.17 mg/kg/day | NOAEL (dog [15]): < 4.17 mg/kg/day
